Results on 18 compounds are retold here after patent US11524010B2, “Substituted quinazoline sulfonamides as thioredoxin interacting protein (TXNIP) inhibitors” (SOUTHERN RESEARCH INSTITUTE, priority 2017, dated 2022).

In data set [1] the test system is TXNIP. The experiment in a line: TXNIP expression in isolated primary human islets. The data set is classed as cell-based. The protocol: (§1) Isolated primary human islets were cultured in the presence or absence of compound #11 (Table 1).
The nature of data set [2]: INS-1 cell viability (Cell Titer-Glo, ATP). Type of data set: cell-based, Rat. Conditions: rat, INS-1 cells, 72 hrs treatment. On the procedure:
INS-1 cell viability was determined based on quantification of ATP using Cell Titer-Glo Luminescent Cell Viability Assay kit (Promega #G7572), which indicates the presence of metabolically active cells. Briefly, INS-1 cells were seeded into 96-well plates at a cell density of 4.5×10^4 and 3.5×10^4 cells per well and incubated overnight at 37° C. with 5% CO2. On the following day, cells were treated with compounds for 24 hrs and 72 hrs respectively. Cell Titer-Glo reagent was added to the cells and Luminescence was acquired on Synergy 4 Reader ([…]).

The subject of data set [3] is primary human islets. The experiment in a line: Cytokine-induced β-cell apoptosis in primary human islets. Type of data set: cell-based. Conditions: Type 1 diabetes associated cytokines. The protocol: as §1
The subject of data set [4] is TXNIP. The experiment in a line: Inhibition of glucose-induced endogenous TXNIP expression in INS-1 cells (qRT-PCR). Type of data set: cell-based, Rat. Conditions: Rattus norvegicus, INS1, 24 h, 25 mM glucose; for inhibition at 1.5 µM: 1.5 μM compound; for inhibition at 12.5 µM: 12.5 μM compound. The protocol: The Rat INS-1 cell line was obtained from UAB and maintained in RPMI-1640 (Invitrogen #11875) supplemented with 10% fetal bovine serum (FBS), 100 U/ml penicillin and […] streptomycin, 10 mM HEPES, 1 mM Sodium Pyruvate, 50 μM 2-Mercaptoethanol, and 11.1 mM Glucose in a humidified incubator with a 5% C02 atmosphere at 37° C. 4×10^4 cells per well were seeded to 96-well plate and incubated at 37° C. overnight. A subset of the cells were then cultured in medium with 5 mM Glucose for 24 hrs and then treated in medium with 25 mM glucose with or without compounds to be tested for another 24 hrs.
For the primary high throughput screening (HTS) assay, stably transfected, monoclonal INS-1 cells were split using Trypsin (2 ml per T75 flask) and seeded at a density of 10^4/well in a 384-well plate and incubated overnight at low, 5 mM glucose. The next day, the medium was changed to high glucose (25 mM) or high glucose plus the small molecules to be tested and luciferase assays were performed 24 h later. […] For secondary screens, total RNA was extracted from 96-well cultured cells using RNeasy 96 kit (Qiagen #74181) following the manufacturer's protocol using spin technology. Then a one-step qRT-PCR amplification was performed using QuantiFast SYBR Green RT-PCR kit (Qiagen #204154) and was carried out in a 10 μl reaction which consisted of 2 μl RNA, 0.5 μM each of primers (Rat TXNIP 5′ primer: […] (SEQ ID NO:1) and Rat TXNIP 3′ primer: […] (SEQ ID NO:2); Or Rat 18S rRNA 5′ primer: […] (SEQ ID NO:3) and Rat 18S rRNA 3′ primer: […]) (SEQ ID NO:4), 5 μl 2×SYBR Green Master Mix, 0.1 μl 10× QuantiFast RT Mix. The SYBR Green assay was performed using a LightCycler 480 II (Roche Applied Science) with an initial incubation at 50° C. for 10 min for RT followed by denaturation at 95° C. for 5 min. Forty cycles of amplification were performed using a thermal cycling profile of 95° C. for 10s, 60° C. for 30 s. Subsequently, a melting curve was recorded by holding at 95° C. for 60 s, cooling to 60° C. for 60 s, and then heating at 0.11° C./s up to 95° C. The data was collected and analyzed using the LightCycler 480 Software Release 1.5.0 SP3. The relative amount of TXNIP mRNA was normalized to 18 s rRNA level as a housekeeping gene, and the data was analyzed according to the 2^−ΔΔCT method (1). The transformed data was expressed as % inhibition and compound IC50 calculated by a 4-parameter logistic fit of the data using GraphPad Prism 7.
A general note: Real-time PCR tracks product formation cycle by cycle.

SMILES strings stand for the structures. “Also recorded” adds a separate entry of the source. Bounds are passed on as bounds.

The CC50 is the concentration at which the toxic effect on the cells reaches its halfway point. A word on the inhibition: it is the share of the control response that was lost under treatment. A low value points to a response near the control. With `CS(=O)(=O)NCC1CCCN(c2ncnc3ccc(C(F)(F)F)cc23)C1` (stereo not drawn) [Compound 11, N-((1-(6-(trifluoromethyl)quinazolin-4-yl)piperidin-3-yl)methyl)methanesulfonamide], the “pro-inflammatory cytokine-induced TXNIP expression” value in data set [1] (Type 1 diabetes associated cytokines) was “protected”. In addition, the “glucose-induced TXNIP expression” value in data set [1] (high glucose, vs DMSO control) is listed as “inhibition of TXNIP expression; also recorded: specifically inhibited”. The CC50 at 72 h in data set [2] was determined as 56 µM. Besides, the “cytokine-induced β-cell apoptosis / death” value in data set [3] is recorded as “inhibits; also recorded: protected”. In data set [4], this compound yielded an inhibition at 1.5 µM of 45% and an inhibition at 12.5 µM of 53%.
As to `CS(=O)(=O)NCC1CCCN(c2ncnc3ccc(C#N)cc23)C1` (stereo not drawn) [Compound 13, N-((1-(6-cyanoquinazolin-4-yl)piperidin-3-yl)methyl)methanesulfonamide], the CC50 at 72 h in data set [2] was determined as 42 µM. In data set [4], the inhibition at 1.5 µM came to 41% and the inhibition at 12.5 µM was 1%.
Turning to `CC(C)N(CC1CCCN(c2ncnc3ccc(F)cc23)C1)S(=O)(=O)c1ccccc1` (stereo not drawn) [Compound 42, N-((1-(6-fluoroquinazolin-4-yl)piperidin-3-yl)methyl)-N-isopropylbenzenesulfonamide], in data set [2], the half-maximal cytotoxic concentration (CC50) at 72 h is 4 µM. Moreover, in data set [4], testing at 1.5 µM gave an inhibition of 32% and the inhibition at 12.5 µM amounted to 30%.
Take `CS(=O)(=O)NCC1CCN(c2ncnc3ccc(F)cc23)C1` (stereo not drawn) [Compound 51, N-((1-(6-fluoroquinazolin-4-yl)pyrrolidin-3-yl)methyl)methanesulfonamide]: the half-maximal cytotoxic concentration (CC50) at 72 h in data set [2] was over 100 µM. Moreover, in data set [4], the inhibition at 1.5 µM is 18% and the inhibition at 12.5 µM was determined as 20%.
The corresponding values for `COc1cc2ncnc(N3CCCC(CNS(C)(=O)=O)C3)c2cc1OC` (stereo not drawn) [Compound 8, N-((1-(6,7-dimethoxyquinazolin-4-yl)piperidin-3-yl)methyl)methanesulfonamide] are over 100 µM, 0% and 7%.
As for `CC1(CNS(C)(=O)=O)CCCN(c2ncnc3cc(F)c(C#N)cc23)C1` (stereo not drawn) [Compound 48], the CC50 at 72 h in data set [2] was over 100 µM. In data set [4], this compound showed an inhibition at 1.5 µM of 3% and an inhibition at 12.5 µM of 26%.
The corresponding values for `CS(=O)(=O)NCC1CCCN(c2ncnc3cc(O)c(C(F)(F)F)cc23)C1` (stereo not drawn) [Compound 63, N-((1-(7-hydroxy-6-(trifluoromethyl)quinazolin-4-yl)piperidin-3-yl)methyl)methanesulfonamide] are over 100 µM, 10% and 5%.
Consider `CS(=O)(=O)NC1CCCN(c2ncnc3ccc(C(F)(F)F)cc23)C1` (stereo not drawn) [Compound 38, N-(1-(6-(trifluoromethyl)quinazolin-4-yl)piperidin-3-yl)methanesulfonamide], for which, in data set [2], the CC50 at 72 h was over 100 µM. Also, in data set [4], the inhibition at 1.5 µM was 34% and the inhibition at 12.5 µM came to 60%.
For `CS(=O)(=O)NC1CCCN(c2ncnc3cc(C#N)c(F)cc23)C1` (stereo not drawn) [Compound 36, N-(1-(7-cyano-6-fluoroquinazolin-4-yl)piperidin-3-yl)methanesulfonamide], in that order: 35 µM, 0% and 34%.
As for `CS(=O)(=O)NC1CCCN(c2ncnc3ccc(Cl)cc23)C1` (stereo not drawn) [Compound 35, N-(1-(6-chloroquinazolin-4-yl)piperidin-3-yl)methanesulfonamide], the CC50 at 72 h in data set [2] came to 41 µM. In data set [4], this compound came in with an inhibition at 1.5 µM of 38% and an inhibition at 12.5 µM of 64%.
Turning to `CS(=O)(=O)NCC1CCCN(c2ncnc3cc(N4CCOCC4)c(F)cc23)C1` (stereo not drawn) [Compound 23, N-((1-(6-fluoro-7-morpholinoquinazolin-4-yl)piperidin-3-yl)methyl)methanesulfonamide], the CC50 at 72 h in data set [2] was over 100 µM. In data set [4], this compound came in with an inhibition at 1.5 µM of 0% and an inhibition at 12.5 µM of 23%.
For `CS(=O)(=O)NCC1CCCN(c2ncnc3cc(F)c(C(F)(F)F)cc23)C1` (stereo not drawn) [Compound 30, N-((1-(7-fluoro-6-(trifluoromethyl)quinazolin-4-yl)piperidin-3-yl)methyl)methane-sulfonamide], in that order: over 100 µM, 9% and 33%.
The corresponding values for `CS(=O)(=O)NCC1CCCN(c2ncnc3ccc(-c4ccccn4)cc23)C1` (stereo not drawn) [Compound 27, N-((1-(6-(pyridin-2-yl)quinazolin-4-yl)piperidin-3-yl)methyl)methanesulfonamide] are 70 µM, 9% and 4%.
For the compound `O=S(=O)(NCC1CCCN(c2ncnc3ccc(C(F)(F)F)cc23)C1)c1ccc(Cl)cc1` (stereo not drawn) [Compound 56, 4-chloro-N-((1-(6-(trifluoromethyl)quinazolin-4-yl)piperidin-3-yl)methyl)benzenesulfonamide], in data set [2], the cytotoxic concentration (CC50) at 72 h was determined as 17 µM. In data set [4], this compound returned an inhibition at 1.5 µM of 19% and an inhibition at 12.5 µM of 30%.
Regarding `CC(NS(C)(=O)=O)C1CCCN(c2ncnc3cc(F)c(F)cc23)C1` (stereo not drawn) [Compound 45, N-(1-(1-(6,7-difluoroquinazolin-4-yl)piperidin-3-yl)ethyl)methanesulfonamide], the 50% cytotoxic concentration (CC50) at 72 h in data set [2] is over 100 µM. In data set [4], this compound returned an inhibition at 1.5 µM of 22% and an inhibition at 12.5 µM of 44%.
The corresponding values for `CS(=O)(=O)NCC1CCCN(c2ncnc3cc(C#N)c(F)cc23)C1` (stereo not drawn) [Compound 20, N-((1-(7-cyano-6-fluoroquinazolin-4-yl)piperidin-3-yl)methyl)methanesulfonamide] are over 100 µM, 19% and 30%.
As to `CS(=O)(=O)NCC1CN(c2ncnc3ccc(F)cc23)CCO1` (stereo not drawn) [Compound 46, N-((4-(6-fluoroquinazolin-4-yl)morpholin-2-yl)methyl)methanesulfonamide], the CC50 at 72 h in data set [2] was over 100 µM. Further, in data set [4], testing at 1.5 µM gave an inhibition of 0% and the inhibition at 12.5 µM was found to be 55%.
For `CS(=O)(=O)NCC1CCCN(c2ncnc3cccc(Cl)c23)C1` (stereo not drawn) [Compound 6, N-((1-(5-chloroquinazolin-4-yl)piperidin-3-yl)methyl)methanesulfonamide], in that order: over 100 µM, 29% and 43%.
